From US12569576B2, “Compositions and methods for measuring oxidative stress” (Washington University, priority 2020, dated 2026) come the findings set out here.

Data set [1] deals with ROS activity in acutely injured lungs. The experiment in a line: Preclinical PET/CT imaging, mouse model of LPS-mediated acute lung injury. As to conditions: for Standard Uptake Value (SUV) in lungs: n=4, frames 45-60 min. It is filed as in vivo. The protocol: All animal procedures were approved by the Washington University Animal Studies Committee. Imaging and biodistribution studies were performed in C57Bl6 mice (average weight, 24 g). Male mice (n=4) were treated either with LPS at a dose of 5 μg/g or vehicle (saline) 24 h prior to imaging/biodistribution studies. For these studies, mice were anesthetized with isoflurane (2.0%) via an induction chamber and maintained with a nose cone. After anesthetization, the mice were secured in a supine position and placed in an acrylic imaging tray. Following intravenous tail-vein administration of ^68Ga-Galuminox (100 μL; 100 μCi; 2% ethanol in saline, 3.7 MBq), dynamic preclinical PET scans were performed over 60 min, using Inveon PET/CT scanner (Siemens Medical Solutions). PET data were stored in list mode, and reconstruction was performed using a 3D-OSEM method with detector efficiency, decay, dead time, attenuation, and scatter corrections applied. For anatomical visualization, PET images were also co-registered with CT images from an Inveon PET/CT scanner. ROIs were drawn over the lung, and standard uptake values (SUV) were calculated as the mean radioactivity per injected dose per animal weight.

Data set [2] in a line: Biodistribution studies (post preclinical imaging). The format is in vivo, C57Bl6 mice. As to conditions: for Biodistribution, Bladder / Biodistribution, Blood / Biodistribution, Bone / Biodistribution, Brain / Biodistribution, Colon / Biodistribution, Fat / Biodistribution, Heart / Biodistribution, Intestine / Biodistribution, Kidney / Biodistribution, Liver / Biodistribution, Lung / Biodistribution, Muscle: 60 min, mean, n=4. The text has this: All animal procedures were approved by the Washington University Animal Studies Committee. Following microPET/CT imaging, mice (n=4) were euthanized by cervical dislocation. Blood samples were obtained by cardiac puncture, organs then harvested rapidly, and all tissue samples analyzed for γ-activity using Beckman Gamma 8000 counter. All samples were decay-corrected to the time the γ-counter was started. Standard samples were counted with the organs for each animal and represent […] of the injected dose. An additional dose was diluted into milliQ water (100 mL) and aliquots (1 mL) were counted with each mouse. Data were quantified as the percentage injected dose (% ID) per gram of tissue (tissue kBq (injected kBq)^−1 (g tissue)^−1×100) in Table 2, shown below.

The next data set has as its system left transplanted lung. The data set can be described thus: MicroPET/CT imaging in mouse lung transplant model of CLAD. Particulars: 4 days post left lung transplant; PET/CT 30 min post injection, 20 min static scan. It is filed as in vivo, mice. The protocol: The next experiment was an evaluation of Galuminox in a mouse lung transplant model of CLAD. Allogeneic (FVB) left lung recipients (B16 mice) were treated with immunosuppression agents CD40L and CTLA4Ig to induce tolerance. Despite treatment with immunosuppressant drugs, allogeneic transplants show OB lesions as a function of time, normally defined as early stages of disease progression (early CLAD) and late stages of disease progression (fulminant CLAD).
4 days post left lung transplant from FVB mice (donor) into B16 mice (acceptor), both transplanted mice and un-transplanted control counterparts were imaged using PET/CT 30 minutes post tail-vein administration of ^68Ga-Galuminox using static acquisition scan of 20 min (FIG. 12A). PET images were co-registered with CT for anatomical correlation. Standard Uptake Values (SUVs) were determined by drawing ROI, and counts were normalized to injected dose and weights of animals (FIG. 12B).

For data set [3], the system named is A549 cells. The data set can be described thus: Galuminox uptake in LPS-treated or serum/glucose deprived A549 cells with ROS-attenuating drugs. As to conditions: LPS-treated or nutrient deprived A549 cells; Galuminox 20 μM 60 min. The format is cell-based, human. The protocol:
For evaluation of therapeutic effects of drugs, such as Carvedilol (CAR), Dexrazoxane (DEX), and mitoTempo (MT) on either serum/glucose deprived media- or LPS-induced superoxide production, A549 cells were incubated with either LPS (1 μg/mL) or serum/glucose deprived (starvation) media for 24 h, and thereafter incubated with Carvedilol, Dexrazoxane, and mitoTempo 24 h at 37° C. Next day, media was removed from wells, cells were carefully rinsed with PBS (2×200 μL), fresh media (200 μL) was added, and cells were incubated with Galuminox (20 μM) at 37° C. for 60 min. For controls, untreated cells were incubated with Galuminox (20 μM) under identical conditions. Thereafter, fluorescence images were acquired, and cellular uptake was quantified as described above.

Data set [4] concerns A549 cells. The data set can be described thus: Live cell fluorescence imaging, cellular accumulation in LPS-treated A549 cells. The format is cell-based, human. As to conditions: LPS 1 μg/mL 24 h. The protocol: Human alveolar basal epithelial (A549) adenocarcinoma cells were grown in Dulbecco's Modified Eagle Medium (DMEM) supplemented with 1-glutamine (2 mM), penicillin/streptomycin (200 IU.) and heat-inactivated fetal calf serum (10%). The cells were grown at 37° C. under a 5% CO2 atmosphere.
Live cell fluorescence imaging studies were performed at Washington University Center for Cellular Imaging (WUCCI). For imaging studies, A549 cells or their mt-Keima transfected counterparts were plated onto borosilicate 8-well chambered coverglass (Labtek) and allowed to grow to approximately 70% confluence at 37° C. under 5% CO2 atmosphere in the culture media (200 μL) and treated with LPS (1 μg/mL) for 24 h. Following LPS treatments, all wells were rinsed with fresh media. […] Images were processed and analyzed using the ImageJ software package (NIH). […] For analysis, ROIs were drawn on cells of both channels, scatter plots were obtained, and Pearson's Correlation Coefficients (PCC) were determined as described previously (K. W. Dunn, M. M. Kamocka, J. H. McDonald. A practical guide to evaluating colocalization in biological microscopy. Am. J. Physiol. Cell Physiol., 300 (2011), pp. C723-C742.).

[5] abbreviates: LPS vs saline, 1 h post injection.

Where “and” joins values, the source holds several entries; their conditions need not be identical. Identical values can stand only once.

With `O=C(CNC(=S)Nc1ccc(CC2CN3CCN4CCN2CC(=O)[O][68Ga]([O]C(=O)C4)[O]C(=O)C3)cc1)Nc1cccc2c(=O)[nH][nH]c(=O)c12` (stereo not drawn) [^68Ga-Galuminox], in data set [1] (0-60 min dynamic PET), the “SUV time-activity curves, retention in lungs of LPS-treated mice” value was “consistently higher and stable retention”. The “Standard Uptake Value (SUV) in lungs” value in data set [1] (LPS-treated mice (5 μg/g, 24 h)) came out at 12.9±1.85. In data set [1] (mouse, in vivo), the “mode of excretion (PET pharmacokinetics)” value is “dominant renal mode of probe excretion”. Moreover, the “Standard Uptake Value (SUV) in lungs” value in data set [1] (saline (vehicle) only treated mice) turned out to be 2.62±0.48. Moreover, in data set [2] (1 h post injection), the “excretion profiles (biodistribution)” value is “both hepatobiliary- and renal-modes of excretion”. Moreover, in data set [2] (Control (saline)), the “Biodistribution, Bladder” value was 162.956 % ID/g; the “Biodistribution, Blood” value is 2.82±0.88 % ID/g and 2.822 % ID/g; the “Biodistribution, Bone” value was 1.0±0.34 % ID/g and 1.002 % ID/g; the “Biodistribution, Brain” value was 0.5693 % ID/g. In data set [2] (Control (saline)), the “Biodistribution, Colon” value was 0.8617 % ID/g; the “Biodistribution, Fat” value is given as 0.6117 % ID/g; the “Biodistribution, Heart” value is recorded as 2.381 % ID/g; the “Biodistribution, Intestine” value was determined as 4.286 % ID/g. Besides, in data set [2] (Control (saline)), the “Biodistribution, Kidney” value came to 13.0965 % ID/g; the “Biodistribution, Liver” value is 6.14±0.66 % ID/g and 6.138 % ID/g; the “Biodistribution, Lung” value is 39.7±19.3 % ID/g and 39.7 % ID/g; the “Biodistribution, Muscle” value worked out at 1.084 % ID/g. In data set [2] (LPS treated), the “Biodistribution, Bladder” value is 5.893 % ID/g; the “Biodistribution, Blood” value was 3.96±1.83 % ID/g and 3.96 % ID/g; the “Biodistribution, Bone” value was 2.14±0.57 % ID/g and 2.138 % ID/g; the “Biodistribution, Brain” value came out at 0.2628 % ID/g. Further, in data set [2] (LPS treated), the “Biodistribution, Colon” value amounted to 0.2924 % ID/g; the “Biodistribution, Fat” value was 0.3021 % ID/g; the “Biodistribution, Heart” value stood at 1.073 % ID/g; the “Biodistribution, Intestine” value stood at 1.314 % ID/g. Further, in data set [2] (LPS treated), the “Biodistribution, Kidney” value was found to be 3.048 % ID/g; the “Biodistribution, Liver” value was 10.5±1.68 % ID/g and 10.46 % ID/g; the “Biodistribution, Lung” value is 147.9±25.8 % ID/g and 147.8875 % ID/g; the “Biodistribution, Muscle” value was found to be 0.294 % ID/g. Further, in data set [2] (setting [5]), the “bone retention, LPS vs saline” value is 2.1 fold; the “higher retention in lungs of LPS treated mice vs saline-only (biodistribution)” value was determined as 4 fold; the “higher retention in the blood of LPS treated mice vs saline” value was 1.4 fold; the “liver retention, LPS vs saline” value is given as 1.7 fold. In data set [2] (lung 4 fold / blood 1.4 fold), the “higher specific retention in lungs of LPS treated mice (lung normalized to blood)” value was 3 fold and 2.85 fold. Besides, in the data set with left transplanted lung, the “higher uptake in the left transplanted lung compared with untransplanted mice (SUV)” value was 1.5 fold.
In the case of `CC1(C)CC(NC(=O)C[P+](c2ccccc2)(c2ccccc2)c2ccccc2)CC(C)(C)N1[O]` [Mito-Tempo], the “Galuminox probe uptake in the presence of the drug compared to control A549 cells” value in the data set on A549 cells [3] was “significantly decreased”.
Same read-out and setting: with `COc1ccccc1OCCNCC(O)COc1cccc2[nH]c3ccccc3c12` (stereo not drawn) [CAR, Carvedilol] the entry was “significantly decreased”; with `C[C@@H](CN1CC(=O)NC(=O)C1)N1CC(=O)NC(=O)C1` [DEX, Dexrazoxane], “significantly decreased”.
Turning to `Nc1ccc2c(c1)C(c1ccccc1)N(CCCCCC[P+](c1ccccc1)(c1ccccc1)c1ccccc1)c1cc(N)ccc1-2.[I-]` (stereo not drawn) [MitoSOX], the “probe fluorescence, LPS stimulated vs untreated A549 control cells” value with A549 cells [4] is listed as “higher fluorescence”.
